Measured values: patent US10660835B2, “Method for hair frizz reduction” (The Procter & Gamble Company, priority 2015, dated 2020)

Experiment: DVS water uptake after soaking treatment
Conditions: pH 4.2, 40 deg C, at 90% RH
Description: The Moisture Control Material is added into a 50:50 ethanol:water solvent at a concentration of 2% w/w and mixed until completely dissolved. The solution pH is adjusted with sodium hydroxide (50% w/w) to a final pH of 4.2. The soaking solution is kept at 40 deg C. for 2 hrs until a uniform composition is obtained.
One hair switch of natural virgin brown hair is placed in 200 ml of this solution for 2 hours in an oven set at 40° C. After the 2-hour period, the hair is removed, air dried and then tested for moisture uptake using DVS. For the control experiment, a natural brown virgin hair switch of the same weight is placed in a 50:50 ethanol:water solvent and treated under identical conditions.
The % water reduction is calculated as follows: […]
Hair is soaked in active solution of pH 4.2 for different intervals of time from 10 min to 2 hrs at 40 deg C. Hair Switches are air dried and prepared for % water reduction measurement using DVS vs. control (no active).

O=C(O)c1cc(Cl)ccc1O [5-Chlorosalicylic acid]
% water reduction vs control (10 min soaking): 9.6%
% water reduction vs control (20 min soaking): 14.8%
% water reduction vs control (30 min soaking): 19%
% water reduction vs control (1 hr soaking): 26%
% water reduction vs control (2 hr soaking): 30%
